According to patent publication US10517889B2, “Modulators of SMAD7 expression” (Ionis Pharmaceuticals, Inc., priority 2017, dated 2019):
Strand notation (5' to 3'): a small letter for the sugar, then the base; units joined by * are phosphorothioate-linked, units joined directly phosphodiester-linked; [ ] holds rarer units or linkages, { } end groups; capitals alone tell only the bases. e = 2'-O-(2-methoxyethyl) (MOE); [5mC] = 5-methylcytosine; d = 2'-deoxy (DNA)

Key:
human SMAD7 mRNA [1] = assay: Antisense inhibition of human SMAD7 mRNA expression in Hep3B cells by 5-10-5 MOE gapmers, single concentration, electroporation, RT-PCR (Example 1, Study 1 and 2); format: cell-based
Procedure, shortened: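 Hep3B cells (20,000/well) electroporated with 5-10-5 MOE gapmer at 5,000 nM or 15,000 nM for approximately 24 h. SMAD7 mRNA quantified by real-time PCR with primer probe set RTS5062 and normalized to RIBOGREEN total RNA. Values are percent inhibition relative to untreated controls.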

human SMAD7 mRNA [2] = assay: Dose-dependent inhibition of human SMAD7 mRNA expression in Hep3B cells (Example 3, Study 1 and 2); format: cell-based; settings: electroporation; for % inhibition of SMAD7 mRNA expression: approximately 16 hours; for IC50: Study 1 (312.5-20000 nM)
Procedure, shortened: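 Hep3B cells, 20,000 per well, electroporated with antisense oligonucleotide at 0.31, 1.25, 5.00 or 20.00 μM (first series) or 0.74, 2.22, 6.67 or 20.00 μM (second series). After ~16 h, SMAD7 mRNA measured by RT-qPCR (RTS5062), normalised to RIBOGREEN total RNA. Percent inhibition vs untreated cells; IC50 derived.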

[3] = Study 2, electroporation with 15,000 nM antisense oligonucleotide, 5-10-5 MOE gapmers targeting SEQ ID NO: 1 and 2
[4] = 312.5 nM, Study 1, relative to untreated control cells
[5] = electroporation, 15,000 nM, approximately 24 hours, relative to untreated control cells, gapmers targeting SEQ ID NO: 1 and 2
[6] = electroporation, 15,000 nM antisense oligonucleotide (Study 2), 5-10-5 MOE gapmers targeting SEQ ID NO: 1 and 2

Substance	% inhibition of SMAD7 mRNA expression (human SMAD7 mRNA [1]; [3]) [%]	% inhibition of SMAD7 mRNA expression (human SMAD7 mRNA [2]; [4]) [%]	% inhibition of SMAD7 mRNA expression (human SMAD7 mRNA [2]; 1250.0 nM, Study 1) [%]	% inhibition of SMAD7 mRNA expression (human SMAD7 mRNA [2]; 5000.0 nM, Study 1) [%]	% inhibition of SMAD7 mRNA expression (human SMAD7 mRNA [2]; 20000.0 nM, Study 1) [%]	IC50 (human SMAD7 mRNA [2]) [µM]	% inhibition of SMAD7 mRNA expression (human SMAD7 mRNA [1]; [5]) [%]	% inhibition of SMAD7 mRNA expression (human SMAD7 mRNA [1]; [6]) [%]	% Inhibition (human SMAD7 mRNA [1]; [3]) [%]	% inhibition of SMAD7 mRNA expression (human SMAD7 mRNA [1]; electroporation, 5,000 nM, approximately 24 hours, relative to untreated control cells, gapmers targeting SEQ ID NO: 1 and 2) [%]	% inhibition of SMAD7 mRNA expression (human SMAD7 mRNA [1]; electroporation, 15,000 nM, approximately 24 hours, gapmers targeting SEQ ID NO: 3 and 4) [%]
771572 (antisense e[5mC]*eT*eT*eG*eG*dG*dA*d[5mC]*dT*dG*d[5mC]*dA*dA*dA*d[5mC]*e[5mC]*eT*e[5mC]*eT*e[5mC]) [compound 771572]	37	0	10	38	13	> 20	–	–	–	–	–
771885 (antisense e[5mC]*eA*eA*eG*eT*d[5mC]*dT*d[5mC]*dT*dT*dA*d[5mC]*d[5mC]*dT*d[5mC]*eA*e[5mC]*e[5mC]*e[5mC]*eA) [compound 771885]	–	0	4	20	45	> 20	60	–	–	–	–
771661 (antisense eA*eA*eT*eG*e[5mC]*dT*dT*d[5mC]*dT*d[5mC]*dT*dT*dG*dT*dT*e[5mC]*eA*eT*eT*eT) [compound 771661]	–	0	0	6	28	> 20	69	–	–	–	–
771849 (antisense e[5mC]*eT*eA*eG*eG*d[5mC]*dT*dG*dG*dT*d[5mC]*dA*d[5mC]*dT*dT*e[5mC]*e[5mC]*eA*e[5mC]*eT) [compound 771849]	–	25	0	10	35	> 20	–	66	–	–	–
771937 (antisense eT*e[5mC]*e[5mC]*eA*eG*dT*dG*d[5mC]*dT*dT*dG*dT*dG*d[5mC]*dA*eT*eG*eT*eG*e[5mC]) [compound 771937]	–	0	0	4	41	> 20	–	52	–	–	–
771770 (antisense e[5mC]*eT*eG*eT*eT*dG*dG*d[5mC]*dA*dG*dT*dG*d[5mC]*dT*d[5mC]*e[5mC]*e[5mC]*eA*e[5mC]*e[5mC]) [compound 771770]	–	0	11	27	51	> 20	–	61	–	–	–
771822 (antisense e[5mC]*eA*e[5mC]*e[5mC]*eA*dA*dA*dA*d[5mC]*dA*dA*dG*dT*dG*dT*e[5mC]*eT*eA*e[5mC]*e[5mC]) [compound 771822]	–	0	0	30	45	> 20	–	–	44	–	–
771390 (antisense e[5mC]*eG*eG*e[5mC]*eT*dG*d[5mC]*d[5mC]*d[5mC]*d[5mC]*dA*d[5mC]*d[5mC]*d[5mC]*d[5mC]*eG*e[5mC]*eG*e[5mC]*eG) [compound 771390]	–	0	12	26	51	> 20	–	–	66	32	–
771414 (eT*e[5mC]*eG*eG*e[5mC]*dT*dG*dT*d[5mC]*d[5mC]*dG*dT*d[5mC]*dG*d[5mC]*e[5mC]*e[5mC]*e[5mC]*eT*eT; antisense) [compound 771414]	–	0	2	43	33	> 20	65	–	–	–	–
771345 (antisense eA*e[5mC]*eA*eG*e[5mC]*dA*dT*d[5mC]*dT*dG*dG*dA*d[5mC]*dA*dG*eT*e[5mC]*eA*eG*eT) [compound 771345]	–	6	19	49	69	6	–	–	–	–	54
771777 (antisense e[5mC]*e[5mC]*e[5mC]*eT*e[5mC]*dA*dG*dT*d[5mC]*dT*d[5mC]*dA*dG*dA*dT*eA*eA*e[5mC]*eA*eG) [compound 771777]	–	0	0	27	50	8	–	50	–	–	–
